Here are results for 16 compounds from paper PMC5298231, “The Malaria Parasite's Lactate Transporter PfFNT Is the Target of Antiplasmodial Compounds Identified in Whole Cell Phenotypic Screens” (PLoS Pathogens, 2017).

Where “and” joins values, the source holds several entries; their conditions need not be identical. Equal entries are not always repeated. Peptide text beside a SMILES is read from it.

This experiment concerns erythrocytes infected with 3D7 trophozoites. Format: cell-based, Plasmodium falciparum. Conditions: sheet Ratio; for Ratio of metabolite abundance, Exp1_1hr: Exp1, 1hr; for Ratio of metabolite abundance, Exp1_3hr: Exp1, 3hr; for Ratio of metabolite abundance, Exp1_6hr: Exp1, 6hr; for Ratio of metabolite abundance, Exp2_1hr: Exp2, 1hr; for Ratio of metabolite abundance, Exp2_3hr: Exp2, 3hr; for Ratio of metabolite abundance, Exp2_6hr: Exp2, 6hr; for Ratio of metabolite abundance, Exp3_1hr: Exp3, 1hr; for Ratio of metabolite abundance, Exp3_3hr: Exp3, 3hr; for Ratio of metabolite abundance, Exp3_6hr: Exp3, 6hr.

As for `O=C(O)CCC(O)C(=O)O` (stereo not drawn) [2-Hydroxyglutarate], the “Ratio of metabolite abundance, Exp1_1hr” value is listed as 0.7468; the “Ratio of metabolite abundance, Exp1_3hr” value stood at 0.6009; the “Ratio of metabolite abundance, Exp1_6hr” value was determined as 0.699; the “Ratio of metabolite abundance, Exp2_1hr” value is listed as 0.8783. Besides, the “Ratio of metabolite abundance, Exp2_3hr” value stood at 0.8007; the “Ratio of metabolite abundance, Exp2_6hr” value is given as 0.7015; the “Ratio of metabolite abundance, Exp3_1hr” value is listed as 0.9193; the “Ratio of metabolite abundance, Exp3_3hr” value amounted to 0.5841. Moreover, the “Ratio of metabolite abundance, Exp3_6hr” value was 0.9208.

`O=C(O)CCC(=O)C(=O)O` [2-Ketoglutarate]: the “Ratio of metabolite abundance, Exp1_1hr” value stood at 0.5638; the “Ratio of metabolite abundance, Exp1_3hr” value was 0.5076; the “Ratio of metabolite abundance, Exp1_6hr” value is recorded as 0.5229; the “Ratio of metabolite abundance, Exp2_1hr” value is reported as 1.061. The “Ratio of metabolite abundance, Exp2_3hr” value is 0.5178; the “Ratio of metabolite abundance, Exp2_6hr” value was 0.7675; the “Ratio of metabolite abundance, Exp3_1hr” value came out at 0.6752; the “Ratio of metabolite abundance, Exp3_3hr” value is 0.6868. Also, the “Ratio of metabolite abundance, Exp3_6hr” value is reported as 0.9353.

On to `O=C(O)[C@H](O)COP(=O)(O)O` [3-Phosho-D-glycerate], for which the “Ratio of metabolite abundance, Exp1_1hr” value turned out to be 0.9975; the “Ratio of metabolite abundance, Exp1_3hr” value worked out at 1.1161; the “Ratio of metabolite abundance, Exp1_6hr” value came to 1.013; the “Ratio of metabolite abundance, Exp2_1hr” value was found to be 1.017. The “Ratio of metabolite abundance, Exp2_3hr” value is 0.9815; the “Ratio of metabolite abundance, Exp2_6hr” value came out at 1.001; the “Ratio of metabolite abundance, Exp3_1hr” value came out at 0.9949; the “Ratio of metabolite abundance, Exp3_3hr” value stood at 1.065. Further, the “Ratio of metabolite abundance, Exp3_6hr” value came to 1.039.

Take `N[C@@H](COP(=O)(O)O)C(=O)O` [3-Phospho-serine]: the “Ratio of metabolite abundance, Exp1_1hr” value came out at 0.7768; the “Ratio of metabolite abundance, Exp1_3hr” value turned out to be 0.7478; the “Ratio of metabolite abundance, Exp1_6hr” value is given as 0.6073; the “Ratio of metabolite abundance, Exp2_1hr” value is 1.092. Moreover, the “Ratio of metabolite abundance, Exp2_3hr” value was found to be 0.7496; the “Ratio of metabolite abundance, Exp2_6hr” value was 0.7836; the “Ratio of metabolite abundance, Exp3_1hr” value was 0.6617; the “Ratio of metabolite abundance, Exp3_3hr” value was determined as 0.7708. Further, the “Ratio of metabolite abundance, Exp3_6hr” value was 0.5594.

For the compound `NCCCC(=O)O` [4-Aminobutanoate], the “Ratio of metabolite abundance, Exp1_1hr” value came to 3.908; the “Ratio of metabolite abundance, Exp1_3hr” value was 0.7769; the “Ratio of metabolite abundance, Exp1_6hr” value was found to be 1.748; the “Ratio of metabolite abundance, Exp2_1hr” value was 3.257. Besides, the “Ratio of metabolite abundance, Exp2_3hr” value was 2.342; the “Ratio of metabolite abundance, Exp2_6hr” value amounted to 1.761; the “Ratio of metabolite abundance, Exp3_1hr” value amounted to 0.9389; the “Ratio of metabolite abundance, Exp3_3hr” value turned out to be 3.211. Further, the “Ratio of metabolite abundance, Exp3_6hr” value is 3.145.

For `O=P(O)(O)OC[C@H]1OC(OP(=O)(O)OP(=O)(O)O)[C@H](O)[C@@H]1O` (stereo partly drawn) [5-Phosphoribosyl-1-pyrophosphate], the “Ratio of metabolite abundance, Exp1_1hr” value is 1.134; the “Ratio of metabolite abundance, Exp1_3hr” value turned out to be 1.199; the “Ratio of metabolite abundance, Exp1_6hr” value was 1.224; the “Ratio of metabolite abundance, Exp2_1hr” value is reported as 2.035. Moreover, the “Ratio of metabolite abundance, Exp2_3hr” value came to 1.2624; the “Ratio of metabolite abundance, Exp2_6hr” value turned out to be 1.3078; the “Ratio of metabolite abundance, Exp3_1hr” value came to 0.8985; the “Ratio of metabolite abundance, Exp3_3hr” value was 1.899. In addition, the “Ratio of metabolite abundance, Exp3_6hr” value is 1.985.

As for `O=C(O)[C@H](O)[C@@H](O)[C@H](O)[C@H](O)COP(=O)(O)O` [6-Phospho-D-gluconate], the “Ratio of metabolite abundance, Exp1_1hr” value was 1.0502 and 0.8295; the “Ratio of metabolite abundance, Exp1_3hr” value is 0.8826 and 0.6724; the “Ratio of metabolite abundance, Exp1_6hr” value was 0.7609 and 0.6355; the “Ratio of metabolite abundance, Exp2_1hr” value was 0.8989 and 0.6621. The “Ratio of metabolite abundance, Exp2_3hr” value was 0.8049 and 0.5841; the “Ratio of metabolite abundance, Exp2_6hr” value is 0.8315 and 0.5366; the “Ratio of metabolite abundance, Exp3_1hr” value was 0.955 and 0.8159; the “Ratio of metabolite abundance, Exp3_3hr” value was 0.8757 and 0.6904. Besides, the “Ratio of metabolite abundance, Exp3_6hr” value is 0.7181 and 0.6347.

Consider `Nc1ncnc2c1ncn2[C@@H]1O[C@H](COP(=O)(O)OP(=O)(O)O)[C@@H](O)[C@H]1O` [ADP], for which the “Ratio of metabolite abundance, Exp1_1hr” value was determined as 0.7745; the “Ratio of metabolite abundance, Exp1_3hr” value is on record as 0.4477; the “Ratio of metabolite abundance, Exp1_6hr” value was determined as 0.5852; the “Ratio of metabolite abundance, Exp2_1hr” value is 1.167. Also, the “Ratio of metabolite abundance, Exp2_3hr” value stood at 0.7455; the “Ratio of metabolite abundance, Exp2_6hr” value amounted to 0.8713; the “Ratio of metabolite abundance, Exp3_1hr” value turned out to be 0.9108; the “Ratio of metabolite abundance, Exp3_3hr” value was found to be 0.6751. In addition, the “Ratio of metabolite abundance, Exp3_6hr” value is given as 1.045.

Take `Nc1ncnc2c1ncn2[C@@H]1O[C@H](COP(=O)(O)O)[C@@H](O)[C@H]1O` [AMP]: the “Ratio of metabolite abundance, Exp1_1hr” value came out at 0.6651; the “Ratio of metabolite abundance, Exp1_3hr” value stood at 0.4095; the “Ratio of metabolite abundance, Exp1_6hr” value is listed as 0.7534; the “Ratio of metabolite abundance, Exp2_1hr” value was 1.745. Further, the “Ratio of metabolite abundance, Exp2_3hr” value was 0.5002; the “Ratio of metabolite abundance, Exp2_6hr” value turned out to be 0.6205; the “Ratio of metabolite abundance, Exp3_1hr” value is 1.254; the “Ratio of metabolite abundance, Exp3_3hr” value is listed as 1.491. Also, the “Ratio of metabolite abundance, Exp3_6hr” value was 1.967.

With `CC(C)C[C@H](NC(=O)[C@@H](NC(=O)[C@H](C)N)[C@@H](C)O)C(=O)N[C@@H](CO)C(=O)O` [ATLS] (H-ATLS-OH), the “Ratio of metabolite abundance, Exp1_1hr” value is listed as 1.05; the “Ratio of metabolite abundance, Exp1_3hr” value is on record as 0.6654; the “Ratio of metabolite abundance, Exp1_6hr” value was 0.8386; the “Ratio of metabolite abundance, Exp2_1hr” value stood at 1.031. Further, the “Ratio of metabolite abundance, Exp2_3hr” value is reported as 0.8993; the “Ratio of metabolite abundance, Exp2_6hr” value was found to be 0.9335; the “Ratio of metabolite abundance, Exp3_1hr” value is given as 1.05; the “Ratio of metabolite abundance, Exp3_3hr” value worked out at 1.026. Also, the “Ratio of metabolite abundance, Exp3_6hr” value turned out to be 0.9156.

For the compound `Nc1ncnc2c1ncn2[C@@H]1O[C@H](COP(=O)(O)OP(=O)(O)OP(=O)(O)O)[C@@H](O)[C@H]1O` [ATP], the “Ratio of metabolite abundance, Exp1_1hr” value amounted to 0.9749; the “Ratio of metabolite abundance, Exp1_3hr” value came out at 0.855; the “Ratio of metabolite abundance, Exp1_6hr” value is on record as 0.8179; the “Ratio of metabolite abundance, Exp2_1hr” value was found to be 0.9538. In addition, the “Ratio of metabolite abundance, Exp2_3hr” value came to 0.8859; the “Ratio of metabolite abundance, Exp2_6hr” value is 0.784; the “Ratio of metabolite abundance, Exp3_1hr” value was determined as 0.9549; the “Ratio of metabolite abundance, Exp3_3hr” value amounted to 0.8395. The “Ratio of metabolite abundance, Exp3_6hr” value was determined as 0.7365.

Consider `CC(=O)SCCNC(=O)CCNC(=O)[C@H](O)C(C)(C)COP(=O)(O)OP(=O)(O)OC[C@H]1O[C@@H](n2cnc3c(N)ncnc32)[C@H](O)[C@@H]1OP(=O)(O)O` [Acetyl-CoA], for which the “Ratio of metabolite abundance, Exp1_1hr” value is listed as 0.7257; the “Ratio of metabolite abundance, Exp1_3hr” value is 0.4303; the “Ratio of metabolite abundance, Exp1_6hr” value amounted to 0.3828; the “Ratio of metabolite abundance, Exp2_1hr” value is recorded as 0.6969. Moreover, the “Ratio of metabolite abundance, Exp2_3hr” value amounted to 0.7538; the “Ratio of metabolite abundance, Exp2_6hr” value is 0.6508; the “Ratio of metabolite abundance, Exp3_1hr” value is recorded as 0.7524; the “Ratio of metabolite abundance, Exp3_3hr” value stood at 0.685. Also, the “Ratio of metabolite abundance, Exp3_6hr” value turned out to be 0.5138.

On to `CC(=O)N[C@@H](C)C(=O)O` [Acetyl-L-alanine], for which the “Ratio of metabolite abundance, Exp1_1hr” value worked out at 1.844; the “Ratio of metabolite abundance, Exp1_3hr” value stood at 0.6703; the “Ratio of metabolite abundance, Exp1_6hr” value worked out at 0.7764; the “Ratio of metabolite abundance, Exp2_1hr” value was 1.062. The “Ratio of metabolite abundance, Exp2_3hr” value was found to be 0.5861; the “Ratio of metabolite abundance, Exp2_6hr” value is listed as 0.7816; the “Ratio of metabolite abundance, Exp3_1hr” value stood at 0.7593; the “Ratio of metabolite abundance, Exp3_3hr” value came to 1.204. Also, the “Ratio of metabolite abundance, Exp3_6hr” value is on record as 0.7219.

In the case of `NCCOP(=O)(O)OP(=O)(O)OC[C@H]1O[C@@H](n2ccc(N)nc2=O)[C@H](O)[C@@H]1O` [CDP-ethanolamine], the “Ratio of metabolite abundance, Exp1_1hr” value came out at 1.165; the “Ratio of metabolite abundance, Exp1_3hr” value was 0.8992; the “Ratio of metabolite abundance, Exp1_6hr” value stood at 0.8287; the “Ratio of metabolite abundance, Exp2_1hr” value is 1.33. Besides, the “Ratio of metabolite abundance, Exp2_3hr” value is recorded as 1.135; the “Ratio of metabolite abundance, Exp2_6hr” value is on record as 1.07; the “Ratio of metabolite abundance, Exp3_1hr” value was determined as 1.146; the “Ratio of metabolite abundance, Exp3_3hr” value turned out to be 1.029. Further, the “Ratio of metabolite abundance, Exp3_6hr” value turned out to be 0.9178.

For the compound `Nc1ccn([C@@H]2O[C@H](COP(=O)(O)OP(=O)(O)O)[C@@H](O)[C@H]2O)c(=O)n1` [CDP], the “Ratio of metabolite abundance, Exp1_1hr” value worked out at 1.235; the “Ratio of metabolite abundance, Exp1_3hr” value is given as 0.632; the “Ratio of metabolite abundance, Exp1_6hr” value worked out at 0.653; the “Ratio of metabolite abundance, Exp2_1hr” value is listed as 1.081. For the same compound, the “Ratio of metabolite abundance, Exp2_3hr” value is on record as 0.7109; the “Ratio of metabolite abundance, Exp2_6hr” value is 1.157; the “Ratio of metabolite abundance, Exp3_1hr” value came out at 0.7322; the “Ratio of metabolite abundance, Exp3_3hr” value amounted to 0.673. Moreover, the “Ratio of metabolite abundance, Exp3_6hr” value is listed as 0.7355.

With `Nc1ccn([C@@H]2O[C@H](COP(=O)(O)O)[C@@H](O)[C@H]2O)c(=O)n1` [CMP], the “Ratio of metabolite abundance, Exp1_1hr” value worked out at 1.383; the “Ratio of metabolite abundance, Exp1_3hr” value is reported as 1.267; the “Ratio of metabolite abundance, Exp1_6hr” value is given as 1.102; the “Ratio of metabolite abundance, Exp2_1hr” value came out at 0.8705. Besides, the “Ratio of metabolite abundance, Exp2_3hr” value is reported as 0.5442; the “Ratio of metabolite abundance, Exp2_6hr” value is on record as 1.311; the “Ratio of metabolite abundance, Exp3_1hr” value turned out to be 1.179; the “Ratio of metabolite abundance, Exp3_3hr” value came to 1.206. Besides, the “Ratio of metabolite abundance, Exp3_6hr” value is 1.249.
